Reference: ChEMBL document CHEMBL2057197, “Synthesis and evaluation of water-soluble resveratrol and piceatannol via BGLation” (Bioorg Med Chem Lett, 2012)
Activity calls are given as the source filed them. The calls are words filed in the database; no cut-off is given here.

Key:
3T3-L1 [1] = experiment: Reduction in triglyceride level in mouse 3T3L1 cells at 10 to 50 uM after 48 hrs; format: functional, cell-based
3T3-L1 [2] = experiment: Induction of mitochondrial fusion in mouse 3T3L1 cells at 10 to 50 uM after 48 hrs by green Fm-staining; format: functional, cell-based

Row | Structure (SMILES) | Activity (3T3-L1 [1]) | Activity (3T3-L1 [2])
1 | OCC(CO)OCC(COC(CO)CO)n1cc(COc2cc(O)cc(/C=C/c3ccc(O)cc3)c2)nn1 | inactive | inactive
2 | OCC(CO)OCC(COC(CO)CO)n1cc(COc2cc(O)cc(/C=C/c3ccc4c(c3)OCO4)c2)nn1 | inactive | Active
3 | Oc1cc(O)cc(/C=C/c2ccc(O)c(O)c2)c1 | Active | Active
4 | OCC(CO)OCC(COC(CO)CO)n1cc(COc2cc(O)cc(/C=C/c3ccc(O)c(O)c3)c2)nn1 | Active | Active
5 | COc1ccc(/C=C/c2cc(O)cc(OCc3cn(C(COC(CO)CO)COC(CO)CO)nn3)c2)cc1 | inactive | inactive
